In the NIST ThermoML archive (doi:10.1021/je0503296):

Details: Liquid, Vibrating object- edge clamped plate

Cc1ccccc1 [toluene]
Details	mass density, 323.15 K [kg/m3]	mass density, 373.11 K [kg/m3]	viscosity, 323.15 K [mPa·s]	viscosity, 373.11 K [mPa·s]
100 kPa	837	–	0.421	–
13270 kPa	–	807.3	–	0.2924
13940 kPa	850.7	–	0.482	–
26975 kPa	–	822.5	–	0.3398
27338 kPa	861.7	–	0.524	–
40789 kPa	–	834.2	–	0.3691
41055 kPa	871.5	–	0.571	–
54593 kPa	880.1	–	0.615	–
54631 kPa	–	845	–	0.419
68135 kPa	888.1	–	0.66	–
68196 kPa	–	853.4	–	0.436

CCCCCCCC [octane]
Details	mass density [kg/m3]	viscosity [mPa·s]
323.15 K, 100 kPa	676	0.3892
323.15 K, 10096 kPa	687.7	0.44
323.15 K, 20701 kPa	698.1	0.495
323.15 K, 30654 kPa	706.7	0.53
323.15 K, 41050 kPa	714.6	0.576
323.15 K, 54543 kPa	723.9	0.633
323.15 K, 68036 kPa	732.2	0.693
348.14 K, 100 kPa	654.3	0.3011
348.14 K, 7551 kPa	664.7	0.3338
348.14 K, 13680 kPa	672.2	0.3513
348.14 K, 20500 kPa	679.4	0.378
348.14 K, 27466 kPa	686.1	0.4008
348.14 K, 27469 kPa	686.1	0.4
348.14 K, 34305 kPa	692.1	0.424
348.14 K, 34314 kPa	690.8	0.424
348.14 K, 41226 kPa	697.9	0.449
348.14 K, 41227 kPa	697.8	0.449
348.14 K, 48070 kPa	703.1	0.471
348.14 K, 55000 kPa	708.2	0.498
348.14 K, 55004 kPa	708.1	0.499
348.14 K, 61992 kPa	714.2	0.522
348.14 K, 61994 kPa	712.8	0.533
373.12 K, 6723 kPa	644.7	0.2757
373.12 K, 6724 kPa	644.6	0.2758
373.12 K, 20592 kPa	662.9	0.3205
373.12 K, 20599 kPa	662.9	0.3217
373.12 K, 27397 kPa	670.3	0.3429
373.12 K, 27402 kPa	670.4	0.3429
373.12 K, 34317 kPa	677.1	0.3646
373.12 K, 34324 kPa	677.2	0.3649
373.12 K, 41184 kPa	683.5	0.381
373.12 K, 41207 kPa	683.6	0.38
373.12 K, 41221 kPa	683.6	0.384
373.12 K, 48024 kPa	689.2	0.409
373.12 K, 48032 kPa	689.1	0.409
373.12 K, 54853 kPa	694.6	0.433
373.12 K, 54866 kPa	694.6	0.432
373.12 K, 61686 kPa	699.8	0.447
373.12 K, 61704 kPa	699.8	0.449
423.09 K, 14725 kPa	620.5	0.229
423.09 K, 27159 kPa	638.8	0.252
423.09 K, 40831 kPa	655.5	0.287
423.09 K, 54591 kPa	668.8	0.344
423.09 K, 68420 kPa	676.4	0.352
